Laboratory results reported in the supplement of paper PMC10307832.

Columns and labels:
Assay in all cases: relative viability (nuclei count vs DMSO), 5 days (fraction); higher = more cells survive
Vemurafenib + Vorinostat = compound: CCCS(=O)(=O)Nc1ccc(F)c(C(=O)c2c[nH]c3ncc(-c4ccc(Cl)cc4)cc23)c1F [Vemurafenib] + O=C(CCCCCCC(=O)Nc1ccccc1)NO [Vorinostat] (partner 1 µM)
Procedure, shortened: (§1)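 For relative viability, nuclei counts in treated wells were divided by those in vehicle wells. Lung cancer cell lines had been pin-tool dosed in 1536-well plates the day after seeding and cultured for 5 days, then fixed and stained in one step (final 0.05% Triton X-100, 1% formaldehyde, 1 ug/ml Hoechst) and imaged at 4×. Doses were one drug alone or a fixed anchor-drug dose plus five library-drug doses (not always all listed) in √10 steps, and values are duplicate-plate medians.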

OSI-027 + Dasatinib = compound: COc1cccc2cc(-c3nc([C@H]4CC[C@H](C(=O)O)CC4)n4ncnc(N)c34)[nH]c12 [OSI-027] + Cc1nc(Nc2ncc(C(=O)Nc3c(C)cccc3Cl)s2)cc(N2CCN(CCO)CC2)n1 [Dasatinib] (partner 0.075 µM)
Procedure, shortened: as §1

OSI-027 + Decitabine = compound: COc1cccc2cc(-c3nc([C@H]4CC[C@H](C(=O)O)CC4)n4ncnc(N)c34)[nH]c12 [OSI-027] + Nc1ncn([C@H]2C[C@H](O)[C@@H](CO)O2)c(=O)n1 [Decitabine] (partner 2 µM)
Procedure, shortened: as §1

Alpelisib + AZD7762 = compound: Cc1nc(NC(=O)N2CCC[C@H]2C(N)=O)sc1-c1ccnc(C(C)(C)C(F)(F)F)c1 [Alpelisib] + NC(=O)Nc1cc(-c2cccc(F)c2)sc1C(=O)N[C@H]1CCCNC1 [AZD7762] (partner 0.2 µM)
Procedure, shortened: as §1

| Cell Line | relative viability (Vemurafenib + Vorinostat; first compound 0.03162 µM) | relative viability (Vemurafenib + Vorinostat; first compound 0.1 µM) | relative viability (Vemurafenib + Vorinostat; first compound 0.3162 µM) | relative viability (Vemurafenib + Vorinostat; first compound 1 µM) | relative viability (OSI-027 + Dasatinib; first compound 0.01 µM) | relative viability (OSI-027 + Dasatinib; first compound 0.03162 µM) | relative viability (OSI-027 + Dasatinib; first compound 0.1 µM) | relative viability (OSI-027 + Dasatinib; first compound 0.3162 µM) | relative viability (OSI-027 + Dasatinib; first compound 1 µM) | relative viability (OSI-027 + Decitabine; first compound 0.01 µM) | relative viability (OSI-027 + Decitabine; first compound 0.03162 µM) | relative viability (OSI-027 + Decitabine; first compound 0.1 µM) | relative viability (OSI-027 + Decitabine; first compound 0.3162 µM) | relative viability (OSI-027 + Decitabine; first compound 1 µM) | relative viability (Alpelisib + AZD7762; first compound 0.04 µM) | relative viability (Alpelisib + AZD7762; first compound 0.1265 µM) | relative viability (Alpelisib + AZD7762; first compound 0.4 µM) | relative viability (Alpelisib + AZD7762; first compound 1.265 µM) | relative viability (Alpelisib + AZD7762; first compound 4 µM) |
| --- | --- | --- | --- | --- | --- | --- | --- | --- | --- | --- | --- | --- | --- | --- | --- | --- | --- | --- | --- |
| 201T | 0.944 | 0.845 | 0.944 | 0.986 | 0.594 | 0.567 | 0.588 | 0.504 | 0.398 | 0.885 | 0.832 | 0.842 | 0.887 | 0.8 | 0.616 | 0.636 | 0.546 | 0.477 | 0.469 |
| A549 |  |  |  |  |  |  |  |  |  | 0.301 | 0.256 | 0.272 | 0.319 | 0.102 |  |  |  |  |  |
| A-427 | 0.807 | 0.819 |  | 0.875 | 0.679 | 0.663 | 0.573 | 0.391 | 0.3 | 0.522 | 0.59 | 0.469 | 0.484 | 0.37 | 0.712 | 0.649 | 0.72 | 0.574 | 0.617 |
| ABC-1 | 1.06 | 0.972 | 0.831 | 1.45 | 0.656 | 0.516 | 0.384 | 0.486 | 0.216 | 1.03 | 1.33 | 1.16 | 1.05 | 0.762 | 0.996 | 0.875 | 1.2 | 0.598 | 0.69 |
| CAL-12T | 0.673 | 0.698 | 1.04 | 0.875 | 0.4 | 0.376 | 0.367 | 0.36 | 0.148 |  |  |  |  |  | 0.7 | 0.593 | 0.754 | 0.566 | 0.643 |
| COR-L23 | 0.443 | 0.412 | 0.373 | 0.441 | 0.513 | 0.422 | 0.424 | 0.386 | 0.208 | 0.482 | 0.474 | 0.379 | 0.372 | 0.236 |  |  |  |  |  |
| COR-L 105 | 0.838 |  | 0.903 | 0.815 | 0.322 | 0.328 | 0.299 | 0.236 | 0.243 | 0.739 | 0.56 | 0.603 | 0.639 | 0.647 |  |  |  |  |  |
| HCC-44 | 1.09 | 1.01 | 1.09 | 1.16 |  |  |  |  |  | 0.903 | 0.973 | 0.93 | 0.945 | 0.777 | 1 | 1.02 | 1.02 | 1.03 | 1.07 |
| IA-LM | 0.975 | 0.914 | 0.946 | 0.966 |  |  |  |  |  |  |  |  |  |  |  |  |  |  |  |
| NCI-H520 | 0.68 | 0.714 | 0.718 | 0.497 | 0.254 | 0.192 | 0.143 | 0.133 | 0.129 | 0.583 | 0.482 | 0.47 | 0.363 | 0.228 |  |  |  |  |  |
